Columns and labels:
[1] = test system: lesional skin of patients with moderate atopic dermatitis; test: Gene expression by qRT-PCR (TLDA) in lesional skin biopsies, Phase II atopic dermatitis study; type: in vivo, human; settings: qRT-PCR fold change, lesional skin biopsy, Day 22, niclosamide 2% once daily
From the text: (§1) 31 patients with moderate atopic dermatitis (Investigator Global Assessment [IGA] of 3) were included in this double-blind, randomized, intraindividual vehicle-controlled, Phase 2 study to evaluate the efficacy and safety of topically applied niclosamide. Patients had at least 2 areas of at least 3×3-cm of atopic dermatitis with a Total Sign Score (TSS) of […] discontinued the study before Day 22.
(§2) Patients received topical applications of the niclosamide 2% composition and vehicle once daily for 3 weeks, followed by a 1-week follow up period. Topical niclosamide 2% and vehicle was applied on two separate target lesions of atopic dermatitis (lesions of at least 3×3-cm that are at least 2 cm apart, excluding the face, scalp, genitals, hands, and feet). The application areas (5×5-cm) were randomized (1:1) to once daily application of niclosamide 2% or vehicle at 5 mg/cm^2/day without occlusion 6 days per week. Patients came to the study site for all study product application for a total of 3 weeks.
(§3) Three skin biopsies were collected in all patients (one from lesional skin at baseline, pre-dosing at Day 1, and two from lesional skin at Day 22 (one where topical niclosamide 2% had been applied and one where the vehicle had been applied). The lesional skin biopsies were analysed for skin thickness and inflammation biomarkers.
(§4) Skin barrier and inflammation biomarker levels were determined from lesional skin biopsies from application areas.
(§5) The skin biopsy samples were analysed by immunohistochemistry (IHC), and by gene expression studies by RT-PCR using TaqMan Low Density Array (TLDA), and by microarray using Affymetrix U133A Plus 2. The immunohistochemistry (IHC) was used to analyse cell biomarkers. The methodologies as disclosed by Guttman-Yassky et al, “Major differences in inflammatory dendritic cells and their products distinguish atopic dermatitis from psoriasis”, The Journal of Allergy and Clinical Immunology, vol. 119, issue 5, pages 1210-1217, 2007, were followed except for that U133A Plus 2-set Gene Chip probe arrays was used instead of U95A-set Gene Chip probe arrays.
Expression values (threshold cycle [Ct]) were normalized to Rplp0 by negatively transforming the Ct values to −dCt (IL17A was normalized to hARP, as analysed by qPCR). The undetected −dCt values were estimated for each gene as the 20% of the minimum across all samples. qRT-PCR expression data were modelled using a mixed effect model with Visit and Treatment Area as a fixed effect and a random intercept for each patient. This formulation intrinsically models the within patient correlation structure as in the case of a paired t-test. This approach introduces less bias than restricting the analysis for those patients who completed the study. Contrasts were used to estimate the fold changes with treatment within each treatment group and conduct hypothesis testing.

[2] = test system: lesional skin of patients with moderate atopic dermatitis; test: Gene expression by microarray (Affymetrix U133A Plus 2) in lesional skin biopsies, Phase II atopic dermatitis study; type: in vivo, human; settings: microarray fold change
From the text: as §1, §2, §3, §4, §5
Experimental design: The hybridization strategy was in concordance with experimental design principles, by for example keeping all samples from the same patient in the same date, and always include samples from every treatment arm/group.
Quality Control and Pre-processing: Quality control of microarray chips were carried out using standard QC metrics and R package microarray Quality Control. Expression measures were obtained using GCRMA algorithm (Wu & Irizarry, 2004). Several visual and modelling techniques were used to elucidate if batch effect existed. Principal Component analysis plots were used to detect if any evident batch effect existed. If such batch effects were found, they were adjusted using Combat, an empirical Bayes method for adjusting data for batch effects that is robust to outliers in small sample sizes (Johnson, Li, & Rabinovic, 2007). The implementation of Combat by package sva was used.
Probe-sets with at least 5% samples with expression larger than 3 (in log 2-scale) were kept for further analysis. Expression values were modelled using mixed-effect models with fixed factors Visit and Treatment Area and a random effect for each patient. Fold changes for the comparisons of interest were estimated and hypothesis testing was conducted on such comparisons using contrasts under the general framework for linear models in limma package. The inter-replicate correlation was computed by Duplicate Correlation function and the linear model was estimated by ImFit. P-values from the moderated (paired) t-test were adjusted for multiple hypotheses using the Benjamini-Hochberg procedure, which controls for FDR.

[3] = test system: lesional skin of patients with moderate atopic dermatitis; test: Immunohistochemistry (IHC) of cell markers in lesional skin biopsies, Phase II atopic dermatitis study; type: in vivo, human; settings: lesional skin biopsy, Day 22, 2% niclosamide
From the text: as §1, §2, §3, §5

[4] = test system: lesional skin of patients with moderate atopic dermatitis; test: Skin thickness in lesional skin biopsies at Day 22; type: in vivo, human; settings: lesional skin biopsy, Day 22, 2% niclosamide
Method: as §2, with “weeks. Three skin biopsies were collected in all patients (one from lesional skin at baseline, pre-dosing at Day 1, and two from lesional skin at Day 22 (one where topical niclosamide 2% had been applied and one where the vehicle had been applied). The lesional skin biopsies were analysed for skin thickness and inflammation biomarkers.” for “weeks.”

dendritic cell = settings: in-vitro, Wu et al.; cited from earlier work
[5] = test system: lamina propria T cells (expressing CD3); settings: WO 2017/040864; cited from earlier work
lesional AD skin = settings: Brunner et al; cited from earlier work
[6] = lesional skin biopsy, Day 22, niclosamide 2% once daily
[7] = niclosamide relative to vehicle, Day 22, 2% niclosamide, p<0.05

O=C(Nc1ccc([N+](=O)[O-])cc1Cl)c1cc(Cl)ccc1O [Niclosamide, niclosamide]
CXCL1 Niclosamide vs. Predose [1]: −2.80
CXCL10 Niclosamide vs. Vehicle [1]: −1.10
FLG Niclosamide vs. Predose [1]: 1.50
FLG Niclosamide vs. Vehicle [1]: 1.30
IL2 Niclosamide vs. Predose [1]: −1.20
IL17A Niclosamide vs. Vehicle [1]: −1.40
KRT16 Niclosamide vs. Vehicle [1]: −1.60
MMP12 Niclosamide vs. Vehicle [1]: −1.90
S100A7 Niclosamide vs. Vehicle [1]: −2.20
FLG Niclosamide vs. Predose ([1]; listed as niclosamide): increased significantly
LOR Niclosamide vs. Predose ([1]; listed as niclosamide): increased significantly
ACOX2 Niclosamide vs Predose [2, 6]: 1.40
ACOX2 Vehicle vs. Niclosamide [2, 6]: −1.40
CCL13 Niclosamide vs Predose [2, 6]: −1.40
CCL18 Niclosamide vs Predose [2, 6]: −1.70
CCL20 Vehicle vs. Niclosamide [2, 6]: 2.00
CCR1 Niclosamide vs Predose [2, 6]: −1.90
CCR5 Niclosamide vs Predose [2, 6]: −1.40
CD86 Niclosamide vs Predose [2, 6]: −1.60
CXCL1 Vehicle vs. Niclosamide [2, 6]: 2.10
FA2H Niclosamide vs Predose [2, 6]: 1.50
IFNGR2 Vehicle vs. Niclosamide [2, 6]: 1.10
IL4R Niclosamide vs Predose [2, 6]: −1.80
KRT79 Vehicle vs. Niclosamide [2, 6]: −2.00
S100A12 Vehicle vs. Niclosamide [2, 6]: 2.30
SPTLC3 Vehicle vs. Niclosamide [2, 6]: −1.30
CXCL1 downregulated compared to vehicle [2, 7]: −2.10
S100A12 downregulated compared to vehicle [2, 7]: −2.30
Langerhans cells: langerin/CD207, compared to baseline [3]: Significant reductions
dendritic cells: CD11c, compared to baseline [3]: Significant reductions
dendritic cells: FceR1 in epidermis, compared to baseline [3]: Significant reductions
total amount of T cells (CD3) in dermis and epidermis, compared to baseline [3]: No significant change
skin thickness compared to baseline and compared to vehicle [4]: No differences
lipopolysaccharide (LPS)-induced dendritic cell maturation and cytokine costimulatory molecule and MHC molecule expression (dendritic cell): inhibitory action
effect on lamina propria T cells (expressing CD3) isolated from IBD patients [5]: kills

dupilumab: inhibits interleukin-4 and interleukin-13 signalling by binding to interleukin-4 receptor a; FDA approved for atopic dermatitis
expression of Th2-associated molecules, such as CCL17, CCL18, and CCL26 (lesional AD skin): reduction

— patent publication US20210369650A1, “TREATMENT OF INFLAMMATORY CONDITIONS” (UNION therapeutics A/S, priority 2018, published 2021)
